According to PubChem BioAssay (NCI):
Where “and” joins values, the source holds several entries; their conditions need not be identical. Equal values may be shown once.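 Step 1: Grow cells in 96-well plates. Step 2: Expose to compound for 48 hours at 5 concentrations. Step 3: Interpolate endpoints linearly; if unreached, use highest concentration. Here, GI50 denotes the concentration required for 50% inhibition of growth. The concentration for full growth arrest is given as TGI.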 Where a SMILES comes first, the peptide text is derived from it. [ ]: non-standard residue; d: D form. The star is where a group is joined. Hyp = O=C(O)[CH]1C[CH](O)CN1; Cbz = O=C(OCc1ccccc1)*

Legend:
Assay in all cases: NCI anticancer screen, dose series, 48 h
[1] = system: 786-0 renal
[2] = system: COLO 205 colon
[3] = system: IGROV1 ovarian
[4] = system: SF-268 CNS
[5] = system: SNB-75 CNS
[6] = system: NCI-H522 lung
[7] = system: HL-60(TB) leukemia

SMILES	TGI [1]	TGI [2] [µM]	TGI [3]	TGI [4]	TGI [5]	TGI [6]	TGI [7]	GI50 [2] [µM]
CC(O)/C=C/C1OC(=O)CC1Nc1ccc(C=O)cc1 (centres undefined)	> 100 µM	> 100	> 100 µM	> 100 µM	> 100 µM			
O=C(/C=C/c1ccc(O)c(O)c1)O[C@H]1CCCC[C@@H]1OC(=O)/C=C/c1ccc(O)c(O)c1	46 µM	56.2	55 µM	38.8 µM	> 100 µM	20.8 µM		
N#CCc1nc(-c2cc3ccc(O)cc3oc2=O)cs1	> 100 µM	> 100	> 100 µM	> 100 µM	> 100 µM	> 100 µM	> 100 µM	
CCOC(=O)/C=C(/C(=O)OCC)n1cc(C)c(=O)[nH]c1=O	8.28 µM	4.07	12.9 µM	24.6 µM	23.7 µM	2.14 µM	3.91 µM	
CNc1ccc(Cl)cc1C(=O)N1CCC[C@H]1CO	> 100 µM	> 100	> 100 µM	> 100 µM	> 100 µM	> 100 µM	> 100 µM	
COC(OC)[C@@H]1OC[C@H](n2ccc(=O)[nH]c2=O)[C@H]1O	> 100 µM	> 100	> 100 µM	> 100 µM	> 100 µM			
Oc1c(O)c(Cc2ccccc2)c(Cc2ccccc2)c(Cc2ccccc2)c1Cc1ccccc1	> 10 µM	> 10	> 10 µM	> 10 µM	> 10 µM	> 10 µM	> 10 µM	
O=C(Cc1ccccc1)Nc1nc2ccc(Cl)cc2c2nc(-c3ccco3)nn12	> 100 µM	> 100	> 100 µM	> 100 µM	> 54.2 µM	> 100 µM	> 100 µM	
NC(=O)CNC(=O)C1CC(O)CN1C(=O)C1CCCN1C(=O)OCc1ccccc1 (stereo not drawn) (Cbz-Pro-[Hyp]-Gly-NH2; configuration not given here)	> 100 µM	> 100	> 100 µM	> 100 µM	> 100 µM	> 100 µM	> 100 µM	
O=c1[nH]nc(Cc2ccc(Cl)cc2)n1CCO	> 100 µM	> 100	> 100 µM	> 100 µM		> 100 µM	> 100 µM	
COc1cccc(C=C(C#N)C#N)c1OC	> 100 µM	> 100	> 100 µM	> 100 µM	> 100 µM	> 100 µM	> 100 µM	
COc1cc(/C=C/C(=O)N[C@@H]2C(=O)N3[C@@H]2SC(C)(C)[C@@H]3C(=O)O)ccc1O	> 100 µM	> 100		> 100 µM	> 100 µM	> 100 µM	> 100 µM	
O=C1CCCc2cc3c(cc21)CC1(C3)Cc2cc3c(cc2C1)C(=O)CCC3	64.8 µM	5.06	84.6 µM	> 100 µM	> 100 µM	6.15 µM	4.6 µM	
C=CCc1cccc(/C(O)=C/C(=O)/C=C/c2ccccc2Cl)c1O	> 71.6 µM	> 58.7	29.6 µM	> 100 µM	> 100 µM	31 µM		
Cc1[nH]c2[nH]c(=S)nc(NC(N)=S)c2c1Cc1ccccc1	76.1 µM	34	> 100 µM	> 100 µM	76.4 µM		57.4 µM	
CN(C)c1ccc(/C=C2\C[C@H]3[C@@H]4CC=C5C[C@@H](O)CC[C@]5(C)[C@H]4CC[C@]3(C)[C@H]2O)cc1	42 µM	23	35.3 µM	34.8 µM	> 100 µM		> 100 µM	
Clc1ccc(C2=Cc3nc2c(-c2ccccc2)c2ccc([nH]2)c(-c2ccccc2)c2nc(c(-c4ccccc4)c4ccc([nH]4)c3-c3ccccc3)C=C2)cc1	> 62.5 µM	> 62.5	> 62.5 µM	> 62.5 µM	> 62.5 µM	> 62.5 µM	> 62.5 µM	
CCOC(=O)/C=C/C1=C(Br)[C@@]2(C)CC[C@@H]3c4ccc(O)cc4CC[C@H]3[C@@H]2C1	25.4 µM	32.2	24.7 µM	33 µM		14.2 µM	34 µM	
CC(=O)OC1OC(C2c3cccc(O)c3C(=O)c3c(O)cc(CO)cc32)C(O)C(O)C1O (centres undefined)	17 µM and 16.2 µM	7.63	20.8 µM and 21.1 µM	21.8 µM and 33.6 µM	23.5 µM and 16.3 µM	18.8 µM and 16.7 µM	17.3 µM and 12.7 µM	2.7
CN1CCN(c2ccc3nc(-c4ccc5nc(CCCc6ccc(N(CCCl)CCCl)cc6)[nH]c5c4)[nH]c3c2)CC1	> 100 µM	> 100	> 100 µM	> 100 µM	> 100 µM	> 100 µM	> 100 µM	
CC(=O)O[C@H]1C(=O)[C@@]2(C)[C@H]([C@H](OC(=O)c3ccccc3)[C@]3(O)C[C@H](OC(=O)[C@H](O)[C@@H](NC(=O)C(C)(O)C(C)O)c4ccccc4)C(C)=C1C3(C)C)[C@]1(OC(C)=O)CO[C@@H]1C[C@@H]2O (some centres undefined)	> 50 µM	0.254	> 50 µM	> 50 µM	0.398 µM	0.341 µM	0.298 µM	
COc1ccc(N2C(=O)C3c4[nH]c5ccc(OC)cc5c4C4CCC(c5ccccc5)CC4C3C2=O)cc1 (centres undefined)	12.2 µM	> 86.1	62.2 µM	> 46.6 µM	16.7 µM	27.4 µM	66 µM	
COc1ccc(-n2nnc3c(C#N)c(C)c(-c4ccccc4)n3c2=O)cc1	8.24 µM	10.6	> 100 µM	> 100 µM	> 29.2 µM			
C/C=C/C(O)P(=O)(OC)OC (centres undefined)	0.36 µM	0.366	1.01 µM	0.914 µM	1.49 µM	0.664 µM	0.591 µM	
CCOC(=O)COc1cc(-c2ccccc2)nc2cc(F)ccc12	> 100 µM	> 100	> 100 µM	> 100 µM	> 100 µM			
COc1ccc(OC)c2c1ccc1c(C)c3ccccc3c(C)c12	> 100 µM		> 100 µM	> 100 µM	> 100 µM	> 100 µM	> 100 µM	
CC(=S)NC=C(C(N)=O)C(N)=O	> 100 µM	> 100	> 100 µM	> 100 µM	> 100 µM	> 100 µM	> 100 µM	
